# Data: patent publication US6803480B2, “Diphenylmethane derivatives” (Bayer Aktiengesellschaft, priority 2000, dated 2004)
# Experiment: T3 promoter assay cell test (luciferase reporter)
# Type: cell-based
# Conditions: Homo sapiens; HepG2 cells, luciferase induction, costimulator retinoic acid, incubation 48 or 72 hours, four replicates
# Procedure: Their activity can be tested, for example, in vitro by the following T3 promoter assay cell test:
# The test is carried out with a stably transfected human HepG2 hepatocarcinoma cell which expresses a luciferase gene under the control of a thyroid hormone-regulated promoter. The vector used for the transfection has upstream of the luciferase gene a minimal thymidine kinase promoter with a thyroid hormone-responsive element (TRE) which consists of two inverted palindromes each of 12 bp and of an 8 bp spacer.
# For the test, the cell cultures are seeded in Eagle's minimal essential medium in 96-well plates with the following additions: glutamine, tricine, sodium pyruvate, nonessential amino acids, insulin, selenium and transferrin. The cultures are grown at 37° C. with a 10% CO2 atmosphere for 48 hours. Then serial dilutions of test substance or reference compound (T3, T4) and costimulator retinoic acid are added to the test cultures and the latter are incubated as previously for a further 48 or 72 hours. Each substance concentration is tested in four replicates. To determine the luciferase induced by T3 or other substances, the cells are subsequently lysed by adding a Triton- and luciferin-containing buffer and measured immediately in a luminometer. The EC50 values for each compound are calculated (see Table 1).
row,EC50,SMILES
1,0.23 nM,"Cc1cc(NC(=O)C(=O)O)cc(C)c1Cc1ccc(O)c(Cc2ccc(F)cc2)c1 [Example 4, ({4-[3-(4-Fluorobenzyl)-4-hydroxybenzyl]-3,5-dimethylphenyl}amino)(oxo)acetic acid]"
2,4.3 nM,"COc1ccc(Cc2c(C)cc(NC(=O)C(=O)O)cc2C)cc1Cc1ccc(F)cc1 [Example 5, ({4-[3-(4-Fluorobenzyl)-4-methoxybenzyl]-3,5-dimethylphenyl}amino)(oxo)acetic acid]"
3,0.14 nM,"Cc1cc(NC(=O)C(=O)O)cc(C)c1Cc1ccc(O)c(C(C)C)c1 [Example 2, 2-[4-(4-Hydroxy-3-isopropylbenzyl)-3,5-dimethylanilino]-2-oxoacetic acid]"
